Test results taken from ChEMBL document CHEMBL1201862, “PubChem BioAssay data set” (2004).
“And” between values parts separate entries of the source, which are not always exact repeats. Equal values may be shown once. Each block holds one compound with its values, some of them ahead of it. The source made the active and inactive calls.

Legend:
[1] = target: Cytochrome P450 2D6 (Homo sapiens, UniProt P10635);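 also: CYP2D6 member of a cytochrome P450 panel assay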
[2] = Trypanosoma cruzi growth suppression in host cells – NIH3T3 host cells, beta-gal luminescence, confirmation (AID 2044); assay type: functional, cell-based;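 also: intracellular parasites grown in NIH/3T3 mouse fibroblasts as host cells; luminescent beta-galactosidase reporter signal from transgenic T. cruzi replicating inside host cells; inhibitors lower the luminescence signal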
[3] = NIH3T3 cell viability loss – ATP luminescence, mouse fibroblasts, counter-screen, dose response (AID 2010); assay type: functional, cell-based;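 also: cells exposed to compound for about 90 hours before reading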
[4] = target: Cytochrome P450 2C9 (Homo sapiens, UniProt P11712)
[5] = Luminescence Cell-Based Dose Retest to Confirm Inhibitors of Cancer Stem Cells. [Related pubchem assays (depositor defined):AID2717, AID2721]; assay type: functional; settings: Homo sapiens
[6] = tested on: INS1; assay: INS-1E survival protection against cytokine death – cell-based, luminescence, retest, dose response (AID 449756); assay type: functional; settings: Rattus norvegicus;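 also: cell death triggered by IL-1 beta plus TNF-alpha plus IFN-gamma mixture; protective hits raise ATP signal compared with cytokine alone wells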
[7] = target: T1, Cytochrome P450 1A2 (Homo sapiens, UniProt P05177);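 also: PubChem cytochrome P450 panel assay, CYP1A2 panel member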
T1 sequence (P05177 whole entry): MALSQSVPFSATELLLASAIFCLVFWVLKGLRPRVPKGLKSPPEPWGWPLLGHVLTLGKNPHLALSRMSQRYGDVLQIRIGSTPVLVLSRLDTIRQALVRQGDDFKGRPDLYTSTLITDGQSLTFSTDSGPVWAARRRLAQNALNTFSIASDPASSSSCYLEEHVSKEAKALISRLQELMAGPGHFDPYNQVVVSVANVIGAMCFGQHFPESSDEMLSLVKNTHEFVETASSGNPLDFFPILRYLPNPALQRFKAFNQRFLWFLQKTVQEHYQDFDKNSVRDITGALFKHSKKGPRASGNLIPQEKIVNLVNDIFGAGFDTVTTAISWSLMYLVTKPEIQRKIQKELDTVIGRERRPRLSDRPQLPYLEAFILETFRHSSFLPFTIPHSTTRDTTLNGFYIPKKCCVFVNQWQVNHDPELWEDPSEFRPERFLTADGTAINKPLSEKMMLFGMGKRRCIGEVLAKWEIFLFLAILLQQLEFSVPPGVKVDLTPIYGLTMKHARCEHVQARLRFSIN

Sequence of Cytochrome P450 2D6 (P10635 whole entry): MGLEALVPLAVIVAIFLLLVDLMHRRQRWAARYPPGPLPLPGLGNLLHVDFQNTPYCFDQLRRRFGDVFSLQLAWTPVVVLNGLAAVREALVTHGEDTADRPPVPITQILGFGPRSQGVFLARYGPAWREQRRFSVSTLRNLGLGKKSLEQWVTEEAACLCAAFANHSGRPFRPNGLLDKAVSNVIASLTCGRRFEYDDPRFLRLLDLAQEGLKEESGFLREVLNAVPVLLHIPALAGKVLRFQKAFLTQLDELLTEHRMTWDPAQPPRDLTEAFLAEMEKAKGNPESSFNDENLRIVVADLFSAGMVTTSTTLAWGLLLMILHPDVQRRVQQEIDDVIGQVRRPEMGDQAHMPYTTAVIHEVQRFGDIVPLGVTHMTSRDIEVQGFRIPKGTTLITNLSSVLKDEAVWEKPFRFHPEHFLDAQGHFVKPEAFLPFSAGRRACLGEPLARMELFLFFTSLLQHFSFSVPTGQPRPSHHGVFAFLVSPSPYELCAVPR
Sequence of Cytochrome P450 2C9 (P11712 whole entry): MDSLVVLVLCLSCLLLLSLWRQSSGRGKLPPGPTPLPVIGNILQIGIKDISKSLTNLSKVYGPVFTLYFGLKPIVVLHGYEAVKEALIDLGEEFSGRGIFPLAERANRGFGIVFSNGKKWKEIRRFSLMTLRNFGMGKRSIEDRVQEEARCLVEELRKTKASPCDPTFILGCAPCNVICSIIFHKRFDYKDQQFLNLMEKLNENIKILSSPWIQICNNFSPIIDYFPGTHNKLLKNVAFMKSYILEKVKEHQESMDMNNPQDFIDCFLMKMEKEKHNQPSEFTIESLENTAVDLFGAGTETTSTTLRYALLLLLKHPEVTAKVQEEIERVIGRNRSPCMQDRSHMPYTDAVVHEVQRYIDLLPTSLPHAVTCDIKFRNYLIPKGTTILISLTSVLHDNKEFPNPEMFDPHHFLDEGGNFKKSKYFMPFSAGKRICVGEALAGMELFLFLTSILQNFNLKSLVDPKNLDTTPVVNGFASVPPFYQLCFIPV

- AC50 [1]: 12.6 µM (inconclusive)
SMILES: C[N+]1(C)CCC(=C(c2ccccc2)c2ccccc2)CC1

SMILES: CC1(C)CC(NCCN2CCN(C3=CC(=C(C#N)C#N)CC(C)(C)C3)CC2)=CC(=C(C#N)C#N)C1
- EC50 [2]: 1.31 µM (active)
- EC50 [3]: > 60 µM (not active)

- AC50 [1]: 15.8 µM (inconclusive)
- AC50 [4]: 22.4 µM (inconclusive)
SMILES: O=C(/C=C\NCC(=O)c1ccccc1)c1ccc(F)cc1

SMILES: O=C(NCc1cccs1)c1cc(-c2ccncc2)nc2ccc(Br)cc12
- EC50 [2]: 2.66 µM (active)
- EC50 [3]: > 60 µM (not active)

- AC50 [4]: 25.1 µM (inconclusive)
SMILES: COc1cccc(C2=NOC(C(=O)Nc3cccnc3)C2)c1 (configuration not stated)

SMILES: CCn1c(N2CCN(S(=O)(=O)c3ccc(F)cc3)CC2)nc2ccccc21
- AC50 [5]: > 195 µM (inactive)

- AC50 [4]: 3.16 µM (inconclusive)
SMILES: O=c1c(CCc2ccccc2)nc2cnc(N3CCOCC3)nc2n1Cc1cccs1

SMILES: O=P(Oc1ccccc1)(Oc1ccccc1)N1CCN(c2ccc(F)cc2)CC1
- AC50 [6]: 19.4 µM (active)

SMILES: O=C(Oc1ccccc1)N1CCC2(CCN(Cc3ccncc3)CC2)CC1
- AC50 [7]: 25.1 µM (inconclusive)

SMILES: Fc1ccc(CN2CCCN(Cc3nc(-c4ccc5c(c4)OCO5)no3)CC2)cc1
- EC50 [2]: 0.103 µM (active)
- EC50 [3]: > 60 µM (inconclusive)

SMILES: O=C(NCC1CCCCC1)c1cc2ccccc2cc1O
- AC50 [5]: 5.19 µM (active)

- AC50 [4]: 20 µM (inconclusive)
SMILES: COc1ccc(-n2c(S)nnc2CNC(=O)c2ccc(S(=O)(=O)N3CCCC3)cc2)cc1

SMILES: CC1CCN(C(=O)C(=O)c2cn(CC(=O)N3CCCCCC3)c3ccccc23)CC1
- EC50 [2]: 1.26 µM (active)
- EC50 [3]: > 60 µM (not active)

- AC50 [1]: 39.8 µM (inconclusive)
SMILES: CN(C)c1ncc2ncc(=O)n(CCc3ccccc3)c2n1

- AC50 [1]: 12.6 µM (inconclusive)
SMILES: FC(F)(F)c1cc(CN2CCCC3(CCNCC3)C2)cc(C(F)(F)F)c1

SMILES: S=C(Nc1cccc(Br)c1)N1CCn2cccc2C1c1cccnc1 (configuration not stated)
- EC50 [2]: 1.78 µM (active)
- EC50 [3]: > 60 µM (not active)

SMILES: COC(=O)c1ccc(NC(=O)CCN2CCN(Cc3ccccc3)CC2)cc1
- EC50 [2]: 0.123 µM (active)
- EC50 [3]: > 60 µM (inconclusive)

SMILES: O=C(COc1ccc(F)cc1Cl)Nc1cc(S(=O)(=O)N2CCOCC2)ccc1N1CCCCC1
- EC50 [2]: 2.56 µM (active)
- EC50 [3]: > 60 µM (not active)

- AC50 [1]: 25.1 µM (inconclusive)
SMILES: O=C(c1ccco1)N1CCC[C@@]2(CCN(c3cccc(-c4ccccc4)c3)C2)C1

SMILES: O=C(CSc1ncnc2c1nnn2Cc1ccc(F)cc1)NC1CCCC1
- EC50 [2]: 3.93 µM (active)
- EC50 [3]: > 30 µM (not active)

- AC50 [7]: 28.2 µM (inconclusive)
- AC50 [4]: 0.0708 µM (inconclusive)
SMILES: C=CCN1C(=O)CN=C1Nc1ccccc1

- AC50 [4]: 6.31 µM (inconclusive)
SMILES: Cc1ccc(-n2c(C)cc(C(=O)CSc3n[nH]c(N)n3)c2C)cc1

SMILES: Cc1cc2c(NCCc3ccccc3)ncnc2s1
- AC50 [6]: 1.98 µM (active)

SMILES: COc1cc2c(cc1NC(=O)c1cccc(S(=O)(=O)N(C)C)c1)oc1ccccc12
- AC50 [5]: 2.54 µM (active)

SMILES: O=[N+]([O-])c1cccc(S(=O)(=O)N2CCC(c3nc(-c4ccncc4)no3)CC2)c1
- EC50 [2]: 1.85 µM (active)
- EC50 [3]: > 30 µM (not active)

SMILES: CC(Nc1nc(N2CCCCC2)nc2ccccc12)c1ccccc1 (configuration not stated)
- EC50 [2]: 0.773 µM (active)
- EC50 [3]: 9.37 µM (active)

SMILES: COc1ccccc1/C=C(/CC(=O)NCc1ccc2c(c1)OCO2)c1nc2ccccc2s1
- EC50 [2]: 2.19 µM (active)
- EC50 [3]: > 60 µM (not active)

- AC50 [7]: 5.01 µM (inconclusive)
SMILES: CN1CC[C@H](CN2c3ccccc3Sc3ccccc32)C1

- AC50 [1]: 2.51 µM (inconclusive)
SMILES: COc1ccc(-n2nnnc2SCC(=O)Nc2ccccc2)cc1

SMILES: CCN(CC)S(=O)(=O)c1ccc(N2CCN(c3ccccc3OC)CC2)c(N)c1
- AC50 [6]: 3.55 µM (active)

SMILES: CCN1C(=O)C(CC(=O)Nc2ccc(F)cc2)N(CCCN2CCN(c3ccc(F)cc3)CC2)C1=S (configuration not stated)
- AC50 [5]: 3.1 µM (active)

SMILES: CCN(CC)c1ccc(S(=O)(=O)N2CCCCC2)cc1NC(=O)C1=COCCO1
- EC50 [2]: 7.54 µM (active)
- EC50 [3]: > 60 µM (not active)

- AC50 [1]: 10 µM (inconclusive)
- AC50 [4]: 1 µM (inconclusive)
SMILES: COc1cccc(-c2nc(NCc3ccccc3OC)c3ccccc3n2)c1

SMILES: CSc1cccc(NC(=S)N(CCCN2CCCC2)Cc2cccn2Cc2ccc(Cl)cc2)c1
- EC50 [2]: 2.25 µM (active)
- EC50 [3]: > 60 µM (not active)

SMILES: COc1ccccc1NS(=O)(=O)c1cc(NC(=O)Nc2ccc(Cl)cc2Cl)ccc1N1CCCCC1
- EC50 [2]: 1.58 µM (active)

- AC50 [7]: 25.1 µM (inconclusive)
SMILES: CN1CCN(S(=O)(=O)c2cc([N+](=O)[O-])ccc2N2CCCCCC2)CC1

SMILES: CCOc1ccccc1N1CCN(c2ncnc3scc(-c4ccc(OC)cc4)c23)CC1
- EC50 [2]: 2.44 µM (active)
- EC50 [3]: > 60 µM (not active)

SMILES: CCC(=O)c1cc(F)c(N2CCN(S(=O)(=O)c3ccc(C)cc3)CC2)cc1C
- EC50 [2]: 2.68 µM (active)
- EC50 [3]: > 60 µM (not active)

SMILES: CCOc1cc(N2CCOCC2)c(OCC)cc1NC(=O)c1ccc2ccccc2n1
- EC50 [2]: 2.63 µM (active)
- EC50 [3]: 7.58 µM (active)

- AC50 [1]: 0.0891 µM (inconclusive)
SMILES: CCC(=O)Nc1ccccc1C(=O)OCC(=O)c1cccc2ccccc12

SMILES: Cc1cc(C)c(OCC(O)CNC(C)(C)C)c(C)c1 (configuration not stated)
- AC50 [6]: > 120 µM (inactive)

- AC50 [4]: 20 µM (inconclusive)
SMILES: Cc1cnc(NC(=O)CSc2ccc(Cl)cc2)s1

- AC50 [7]: 20 µM (inconclusive)
SMILES: CN(C)C(=O)c1ccc(-c2nc(-n3ccnc3)c3ccccc3n2)cc1

SMILES: CCOC(=O)C1(Cc2cccc(OC)c2)CCCN(Cc2c(C)nn(C(C)C)c2C)C1 (configuration not stated)
- EC50 [2]: 1.19 µM (active)
- EC50 [3]: > 60 µM (not active)

SMILES: Cc1ccc(-c2nc3cc(Br)cnc3nc2-c2ccc(C)cc2)cc1
- EC50 [2]: 2.68 µM (active)
- EC50 [3]: > 60 µM (not active)

SMILES: CC(=O)c1c(C)n(CC(=O)NCc2ccco2)c2ccccc12
- AC50 [6]: > 260 µM (inactive)

SMILES: C=C[C@@H]1c2cccc(C)c2N(S(=O)(=O)c2ccc(C)cc2)[C@H](c2ccc(OC(C)=O)cc2)C1(C#N)C#N
- AC50 [5]: 5.13 µM (active)

- AC50 [7]: 22.4 µM (inconclusive)
SMILES: Cc1cccc(NC(NC(=O)c2cccnc2)C(Cl)(Cl)Cl)c1 (configuration not stated)

SMILES: O=C1C=C(c2ccc(F)cc2OCc2ccccc2)C[C@@H](c2ccc(F)cc2)C1
- AC50 [5]: 0.964 µM (active)

SMILES: O=C(NCCOCCOCCNC(=O)c1cccnc1)c1cccnc1
- AC50 [6]: 2.55 µM (active)

- AC50 [4]: 8.91 µM (inconclusive)
SMILES: O=C(Cn1nnc(-c2ccccc2)n1)OCc1ccccc1

SMILES: CCCOc1ccc(-c2nc(N3CCN(CC)CC3)c3ccccc3n2)cc1
- AC50 [5]: 5.57 µM (active)

SMILES: COc1ccc(Sc2ccc(-c3nc4cnccn4c3NC3CCCCC3)cc2OC)cc1
- AC50 [5]: 2.93 µM (active)

SMILES: CCCCCCSc1cc(-c2nc3ccc(C)cn3c2NCCCC)ccc1OC
- AC50 [5]: 5.12 µM (active)
- AC50 [6]: 7.09 µM (active)

- AC50 [7]: 2 µM (inconclusive)
- AC50 [4]: 31.6 µM (inconclusive)
SMILES: Sc1nnc(C2CCCCC2)n1/N=C/c1cccs1

- AC50 [1]: 20 µM (inconclusive)
SMILES: CS(=O)(=O)Nc1cccc(-c2cncnc2NCc2ccccc2)c1

SMILES: NC(=NCc1ccccc1)NC(=O)c1nc(Cl)c(N)nc1N [BENZAMIL]
- AC50 [7]: 12.6 µM (inconclusive) and 10 µM (inconclusive)

- AC50 [7]: 15.8 µM (inconclusive)
SMILES: O=C1c2ccccc2C(=O)C1c1ccccc1 [PHENINDIONE]

SMILES: c1cc(CN2CCCCC2)cc(OCCCNc2nc3ccccc3s2)c1 [ZOLANTIDINE]
- AC50 [7]: 31.6 µM (inconclusive) and 15.8 µM (inconclusive)
